Measurements published in patent US20030176494A1, “Novel coumarin and chromene compounds and methods of preparation and use thereof for treating or preventing viral infections” (priority 2001, published 2003).
Converted amounts (≈) assume the structure as drawn. Like-named read-outs stand apart in the source and are kept apart here.

What was measured:
HIV = assay: Anti-HIV evaluation by MTT-tetrazolium method (inhibition of CPE in MT-2 / CEM-SS cells); type: cell-based; conditions: Human immunodeficiency virus 1, CEM-SS; read-out: Antiviral Activities (EC50) HIV
Procedure: This example illustrates the anti-HIV activity of various coumarin and chromene compounds which were evaluated using the published MTT-tetrazolium methods^8. Retroviral agents AZT and DDC were used as controls for comparison purposes.
The cells used for screening were the MT-2 and the human T4-lymphoblastoid cell line, CEM-SS, and were grown in RPMI 1640 medium supplemented with 10% fetal (v/v) heat-inactivated fetal calf serum and also containing 100 units/mL penicillin, 100 μg/mL streptomycin, 25 mM HEPES and 20 μg/mL gentamicin. The medium used for dilution of drugs and maintenance of cultures during the assay was the same as above. The HTLV-IIIB and HTLV-RF were propagated in CEM-SS. The appropriate amounts of the pure compounds for anti-HIV evaluations were dissolved in DMSO, then diluted in medium to the desired initial concentration. The concentrations (M medium) employed were […]; 0.001 μM; 0.0032 μM; 0.01 μM; 0.032 μM; 0.1 μM; 0.32 μM; 1 μM; 3.2 μM; 10 μM; 32 μM; and 100 μM. Each dilution was added to plates in the amount of 100 μL/well. Drugs were tested in triplicate wells per dilution with infected cells while in duplicate wells per dilution with uninfected cells for evaluation of cytotoxicity. On day 6 (CEM-SS cells) and day 7 (MT-2 cells) post-infection, the viable cells were measured with a tetrazolium salt, MTT (5 mg/mL), added to the test plates. A solution of 20% SDS in 0.001 N HCl is used to dissolve the MTT formazan produced. The optical density value was a function of the amount of formazan produced which was proportional to the number of viable cells. The percent inhibition of CPE per drug concentration was measured as a test over control and expressed in percent (T/C %).

Rhinovirus = Rhinovirus antiviral assay (CPE inhibition, neutral red uptake, virus yield); type: cell-based; conditions: Enterovirus
EBV = EBV assay: superinfection of Raji or Daudi cells with P3HR-1, immunofluorescence for EA and VCA; type: cell-based, Epstein-Barr Virus (P3HR-1)
From the text: There are two prototypes of infectious EBV. One is exemplified by the virus derived from supernatant fluids of the P3HR-1cell line. This cell line produces nontransforming virus that causes the production of early antigen (EA) after primary infection or superinfection of B cell lines. The other prototype is exemplified by the B-95-8 virus. This virus immortalized cord blood lymphocytes and induced tumors in marmosets. […] The virus used in our assays is P3HR-1.
Ramos is an exceptional B cell line derived from Burkitt's lymphoma tumor but containing no detectable EBV genome copies and is EBNA negative. Ramos/AW was obtained by in vitro infection of Ramos with the P3HR-1 virus and contains one resident EBV genome copy/cell. Raji is a Burkitt's lymphoma cell line containing 60 EBV genomes/cell, and will be the primary cell used for screening antiviral activity against EBV EA expression. Daudi is a low level producer that contains 152 EBV genome copies/cell. It spontaneously expresses EBV EA in 0.25%-0.5% of the cells. It will be used in follow-up studies to confirm activity. These cell lines respond to superinfection by EBV by expressing EA(D), EA(R), and VCA. All cell lines are maintained in RPMI-1640 medium supplemented by 10% FCS, L-glutamine and 100 μg/mL gentamicin. The cultures are fed twice weekly and the cell concentration adjusted to 3×10^5/mL. The cells are kept at 37° C. in a humidified atmosphere with 5% CO2.
Cells are infected with the P3HR-1 strain of EBV and the drugs to be tested are added after adsorption (45 minutes at 37° C.) and washing of the cell cultures. The cultures are incubated for two days in complete medium to allow viral gene expression. Following the 48 hr incubation period, the number of cells of each sample are counted and smears made. Monoclonal antibodies to the different EA components and VCA are then added to the cells incubated and washed. This is followed by a fluorescein conjugated rabbit anti-mouse Ig antibody; and the number of fluorescence positive cells in the smears are counted. The total number of cells in the cultures positive for EA or VCA are then calculated and compared.

HBV = HBV replication in cultures of 2.2.15 cells (HBV DNA blot hybridization); type: cell-based; conditions: Hepatitis B virus; read-out: Antiviral Activities (EC50) HBV
Procedure: Test compounds are then added daily for a continuous 9 day period. Culture medium (changed daily during the treatment period) is collected and stored for analysis of extracellular (virion) HBV DNA after 0, 3, 6, and 9 days of treatment. Treated cells are lysed 24 hours following day 9 of treatment for the analysis of intracellular HBV genomic forms. HBV DVA is then analyzed in a quantitative and qualitative manner for overall levels of HBV DNA (both extracellular and intracellular DNA) and the relative rate of HBV replication (intracellular DNA).
Both intracellular and extracellular HBV DNA are analyzed in order to (i) allow for verification of compound efficacy and (ii) provide possible data on the target site in the HBV replication pathway for the compound from examination of the pattern of viral replicative forms. The culture medium is changed daily during the treatment period to (i) prevent the buildup of potentially toxic metabolites derived from test compounds and (ii) provide an analysis of HBV virion production during discrete 24-hour intervals which enables a quantitative comparison of any effect on virion production.
The analysis of HBV DNA is performed using blot hybridization techniques (Southern and slot blot) and [^32P]-labeled HBV-specific probes. HBV DNA levels are measured by comparison to known amounts of HBV DNA standards applied to every nitrocellulose membrane (gel or slot blot). An AMBIS beta scanner, which measures the radioactive decay of the hybridized probes directly from the nitrocellulose membranes, is used for the quantitative analysis. Standard curves, generated by multiple analyses, are used to correlate CPM measurements made by the beta scanner with relative levels of target HBV DNA. The levels of HBV virion DNA released into the culture medium are analyzed by a slot blot hybridization procedure. HBV DNA levels are then compared to those at Day 0 to determine the effect of drug treatment.
The levels of RI and episomal monomers are used as an indicator of the relative level of HBV replication. Integrated HBV DNA is used to normalize the relative amounts of DNA in each lane because the levels of this class of HBV DNA would be expected to remain constant on a per cell basis. […] Inhibition of HBV DNA replication is indicated by the loss of RI without changes in the level of integrated HBV DNA.

Measles Virus = assay: Measles virus antiviral assay (CPE inhibition, neutral red uptake, virus yield); type: cell-based, Measles virus strain CC; conditions: Measles morbillivirus
[1] = test system: Respiratory Syncytial Virus; assay: Respiratory syncytial virus antiviral assay (CPE inhibition, neutral red uptake); type: cell-based, Respiratory syncytial virus strain Utah 89; conditions: human respiratory syncytial virus
VZV = VZV plaque reduction assay in human foreskin fibroblast cells; type: cell-based, Varicella Zoster Virus (Ellen strain)
Procedure: [table] Two days prior to use, HFF cells are plated into six-well plates and incubated at 37° C. with 5% CO2 and 90% humidity. On the date of assay, the drug is made up at twice the desired concentration in 2×MEM and then serially diluted 1:5 in 2×MEM using six concentrations of drug. […] The media is then aspirated from the wells and 0.2 mL of virus is added to each well in duplicate with 0.2 mL of media being added to drug toxicity wells. The plates are then incubated for one hour with shaking every fifteen minutes. […] The drug agarose mixture is applied to each well in 2 mL volume and the plates then incubated for three days, after which the cells were stained with a 1.5% solution of neutral red. At the end of 4-6 hr incubation period, the stain is aspirated, and plaques counted using a stereomicroscope at 10× magnification. The procedure is essentially the same as for the HSV plaque assay described above with two exceptions: 1. After addition of the drug, the plates are incubated for ten days. 2.

[2] = CPE inhibition, read-out: Antiviral Activities (EC50) Measles (CPE)
[3] = neutral red (NR) dye uptake, read-out: Antiviral Activities (EC50) Measles (NR)
[4] = CPE inhibition, read-out: Antiviral Activities (EC50) Rhinovirus (CPE)
[5] = neutral red (NR) dye uptake, read-out: Antiviral Activities (EC50) Rhinovirus (NR)
[6] = human gammaherpesvirus 4; read-out: Antiviral Activities (EC50) EBV
[7] = Human alphaherpesvirus 3, Fibroblast; read-out: Antiviral Activities (EC50) VZV
[8] = CPE inhibition, read-out: Antiviral Activities (EC50) Respiratory Syncitial (CPE)
[9] = neutral red (NR) dye uptake, read-out: Antiviral Activities (EC50) Respiratory Syncitial (NR)

CCCc1cc(=O)oc2cc(OC(C)CCO[Si](C)(C)C(C)(C)C)c3c(c12)OC(C)(C)C=C3 (stereo not drawn)
EC50 (HIV): > 18 µg/mL

CCCc1cc(=O)oc2cc(O)cc(O)c12
EC50 (Rhinovirus; readout not stated, read-out: Antiviral Activities (EC50) Rhinovirus): 27 µg/mL (≈ 123 µM) | EC50 (EBV; human gammaherpesvirus 4, read-out: Antiviral Activities (EC50) EBV): > 50 µg/mL | EC50 (HBV): > 2.2 µg/mL | EC50 (Measles Virus; [2]): > 100 µg/mL | EC50 (Measles Virus; [3]): > 100 µg/mL | EC50 ([1]; readout not stated, read-out: Antiviral Activities (EC50) Respiratory Syncitial): 6 µg/mL (≈ 27.2 µM) | EC50 (VZV; Human alphaherpesvirus 3, Fibroblast, read-out: Antiviral Activities (EC50) VZV): 5.9 µg/mL (≈ 26.8 µM)

CCCc1cc(=O)oc2cc(O)c(C(=O)CC)c(O)c12
EC50 (Rhinovirus; [4]): 2 µg/mL (≈ 7.24 µM) | EC50 (Rhinovirus; [5]): 5 µg/mL (≈ 18.1 µM) | EC50 (HIV): > 5 µg/mL | EC50 (EBV; [6]): 8.5 µg/mL (≈ 30.8 µM) | EC50 (HBV): 1 µg/mL (≈ 3.62 µM) | EC50 (Measles Virus; [2]): 3 µg/mL (≈ 10.9 µM) | EC50 (Measles Virus; [3]): 0.4 µg/mL (≈ 1.45 µM) | EC50 (VZV; [7]): > 4 µg/mL

CCCc1cc(=O)oc2c(C(=O)CC)c(O)cc(O)c12
EC50 (Rhinovirus; [4]): 30 µg/mL (≈ 109 µM) | EC50 (Rhinovirus; [5]): 28 µg/mL (≈ 101 µM) | EC50 (EBV; [6]): 0.33 µg/mL (≈ 1.19 µM) | EC50 (HBV): > 3 µg/mL | EC50 (Measles Virus; [2]): 10 µg/mL (≈ 36.2 µM) | EC50 (Measles Virus; [3]): > 100 µg/mL | EC50 [1, 8]: 2 µg/mL (≈ 7.24 µM) | EC50 [1, 9]: 4 µg/mL (≈ 14.5 µM) | EC50 (VZV; [7]): > 0.8 µg/mL

CCCc1cc(=O)oc2c(C(=O)CC)c(O)c3c(c12)OC(C)(C)C=C3
EC50 (HIV): > 68 µg/mL | EC50 (EBV; [6]): 27 µg/mL (≈ 78.9 µM) | EC50 (HBV): > 3 µg/mL | EC50 (Measles Virus; [2]): 20 µg/mL (≈ 58.4 µM) | EC50 (Measles Virus; [3]): > 100 µg/mL | EC50 [1, 8]: 20 µg/mL (≈ 58.4 µM) | EC50 [1, 9]: 40 µg/mL (≈ 117 µM) | EC50 (VZV; [7]): 16.1 µg/mL (≈ 47 µM)

CCCc1cc(=O)oc2cc(O[C@H](C)[C@@H](C)CO)c3c(c12)OC(C)(C)C=C3
EC50 (HIV): > 2 µg/mL

CCCc1cc(=O)oc2cc(O[C@H](C)[C@@H](C)CO[Si](C)(C)C(C)(C)C)c3c(c12)OC(C)(C)C=C3
EC50 (HIV): 7.2 µg/mL (≈ 14.8 µM)

CCCc1cc(=O)oc2c(C(=O)C(C)(O)C(C)O)c(O)c3c(c12)OC(C)(C)C=C3 (stereo not drawn)
EC50 (Rhinovirus; [4]): 0.5 µg/mL (≈ 1.24 µM) | EC50 (Rhinovirus; [5]): 1 µg/mL (≈ 2.48 µM) | EC50 (HIV): > 24 µg/mL | EC50 (HBV): > 4 µg/mL | EC50 (Measles Virus; [2]): 20 µg/mL (≈ 49.7 µM) | EC50 (Measles Virus; [3]): 40 µg/mL (≈ 99.4 µM) | EC50 [1, 8]: 50 µg/mL (≈ 124 µM) | EC50 [1, 9]: 40 µg/mL (≈ 99.4 µM) | EC50 (VZV; [7]): 19.9 µg/mL (≈ 49.4 µM)

CCCc1cc(=O)oc2c3c(c4c(c12)OC(C)(C)[C@H](O)[C@H]4OC(=O)c1cccc(Cl)c1)O[C@H](C)[C@@H](C)[C@@H]3O
EC50 (HIV): 8.4 µg/mL (≈ 15.5 µM)

CCCc1cc(=O)oc2cc(OC(=O)C(C)(C)C)cc(O)c12 [drawing 26]
EC50 (EBV; [6]): 1.1 µg/mL (≈ 3.61 µM) | EC50 (HBV): > 3 µg/mL | EC50 (VZV; [7]): 83 µg/mL (≈ 273 µM)
